pIC50: −log10 of the molar value. ≈ marks a conversion by molar mass, not a printed value. Entries after “also recorded” stand apart in the source; their conditions may differ.
Legend:
Mtb H37Rv [1] = experiment: modified 96-well microplate Alamar blue assay (MABA), growth inhibition; format: cell-based, Mycobacterium tuberculosis; conditions: for MIC: Mycobacterium tuberculosis, H37RV, Mtb H37Rv; for growth inhibition activity in words: SAR discussion
Mycobacterium abscessus = experiment: MIC against Mycobacterium abscessus, OD590; conditions: Mycobacteroides abscessus
Experimental: The activity of compounds against Mycobacterium abscessus and Mycobacterium avium was assessed under aerobic conditions by determining the minimum inhibitory concentration of compound (MIC). The strains were M. abscessus subsp. bollettii 103 and M. avium subsp. avium 2285 (S). The assay was based on measurement of growth in liquid medium of each strain where the readout is optical density (OD) or metabolic activity (using Alamar blue).
The MIC of compound against Mycobacterium abscessus and Mycobacterium avium was determined by measuring bacterial growth in the presence of test compounds. Compounds were prepared as 20-point two-fold serial dilutions in DMSO and diluted into 7H9-Tw-OADC medium in 96-well plates with a final DMSO concentration of 2%. The highest concentration of compound was 200 μM where compounds were soluble in DMSO at 10 mM. Each plate included assay controls for background (medium/DMSO only, no bacterial cells), zero growth (100 μM rifampicin) and maximum growth (DMSO only), as well as a rifampicin dose response curve.
For Mycobacterium abscessus, plates were inoculated with M. abscessus and incubated for 3 days at 37° C.; growth was measured by OD590. […] Rifampicin was included once in each run. […] If no point reached 75% inhibition, the MIC was reported as >maximum concentration tested.

[2] = test system: autoluminescent Mtb strain derived from Mtb H37Rv in THP-1 cells; experiment: microbe, parasite or virus in culture; format: cell-based; conditions: Mycobacterium tuberculosis; for pIC50: THP-1, 72 h, read-out: IC50 intracellular activity
Mtb H37Rv [3] = experiment: minimum bactericidal concentration (MBC), kill kinetics over 21 days; format: cell-based; conditions: Mycobacterium tuberculosis, 504 h, aerobic, 7H9-Tw-OADC medium, 2-log kill in 21 days
Mtb H37Rv mc26206 = experiment: microbe, parasite or virus in culture; format: cell-based; conditions: Mycobacterium tuberculosis
Mtb H37Rv [4] = experiment: microbe, parasite or virus in culture; format: cell-based; conditions: Mycobacterium tuberculosis
[5] = test system: THP-1 human monoocytic cell line; experiment: cytotoxicity towards PMA-differentiated THP-1 cells (CellTiter-Glo); format: cell-based
[6] = test system: mycolic acid biosynthesis in Mtb; experiment: mycolic acid biosynthesis, [1,2-14C]acetate labeling, TLC and autoradiography; format: cell-based, Mycobacterium tuberculosis; conditions: 0.4-4 μg/ml, 16 h

## CCN1CCc2c(sc(NC(=O)c3cc(C(F)(F)F)cc(C(F)(F)F)c3)c2C(=O)NCc2ccc(C)cc2)C1 [4{3,4,3}, 2-(3,5-Bis(trifluoromethyl)benzamido)-6-ethyl-N-(4-methylbenzyl)-4,5,6,7-tetrahydrothieno[2,3-c]pyridine-3-carboxamide]
Mtb H37Rv [1]
  MIC: ≥ 200 µg/mL

## CCOC(=O)c1c(NC(=O)c2c(F)c(F)c(F)c(F)c2F)sc2c1CCN(CC)C2 [4{3,3,0}, ethyl 6-ethyl-2-(perfluorobenzamido)-4,5,6,7-tetrahydrothieno[2,3-c]pyridine-3-carboxylate]
Mycobacterium abscessus
  MIC: 1.11 µg/mL (≈ 2.48 µM)
[2]
  pIC50: 5.25
[2]; THP-1, read-out: IC90 intracellular activity
  IC90: 9.75 µM
Mtb H37Rv [3]
  MBC: < 5 µM
Mtb H37Rv mc26206
  MIC: 0.4 µg/mL (≈ 0.892 µM)
Mtb H37Rv [4]
  MIC: 0.23 µM (≈ 0.103 µg/mL)
Mtb H37Rv [1]
  increase in potency compared to compound 4{4,3,0}: 40 fold
[5]; Homo sapiens, 72 h, THP-1 macrophage-like cells, 3 days, read-out: IC50 (concentration causing a 50% loss in viability)
  pIC50: 5.21
[5]; times higher than the MIC
  macrophage viability IC50 relative to the MIC: 27 times
[6]
  effect on synthesis of mycolic acids (TMM, TDM, mAG-attached mycolates): strongly inhibits the biosynthesis of all forms of mycolic acid; also recorded: strongly inhibits the synthesis of all forms of mycolic acids

## NNC(=O)c1ccncc1 [INH, Isoniazid, reference compound]
[2]
  pIC50: 6.62

## CCOC(=O)c1c(NC(=O)c2cc(C(F)(F)F)cc(C(F)(F)F)c2)sc2c1CCN(CC)C2 [4{3,4,0}, Ethyl 2-(3,5-bis(trifluoromethyl)benzamido)-6-ethyl-4,5,6,7-tetrahydrothieno[2,3-c]pyridine-3-carboxylate]
Mtb H37Rv [1]; read-out: MIC
  MIC: > 100 µg/mL

## CCOC(=O)c1cc(-c2ccccc2)sc1NC(=O)c1c(F)c(F)c(F)c(F)c1F [4{5,3,0}, Ethyl 2-(perfluorobenzamido)-5-phenylthiophene-3-carboxylate]
Mtb H37Rv [1]; read-out: MIC
  MIC: > 100 µg/mL

## CCOC(=O)c1c(NC(=O)c2ccccc2)sc2c1CCCC2 [4{4,2,0}]
Mtb H37Rv [1]
  growth inhibition activity in words: no activity

## CCOC(=O)c1c(NC(=O)c2c(F)c(F)c(F)c(F)c2F)sc2c1CCN(C(=O)OC(C)(C)C)C2 [4{2,3,0}, 6-(Tert-butyl) 3-ethyl 2-(perfluorobenzamido)-4,7-dihydrothieno[2,3-c]pyridine-3,6(5H)-dicarboxylate]
Mtb H37Rv [1]
  growth inhibition activity in words: inactive

Source: patent publication US10647725B2, “Anti-infective 2-aminothiophenes” (priority 2016, dated 2020)
